Test results taken from patent publication US11427548B2 (Arvinas Operations, Inc., priority 2015, dated 2022).
Where two headings read alike, the source gives them in different places.

Key:
[1] = biological target: T1, Androgen Receptor (Homo sapiens, UniProt P10275); test: Androgen Receptor ELISA assay (PathScan AR ELISA) in VCaP cells: AR degradation, Dmax and DC50; assay type: cell-based
T1 construct: endogenous in cells; host or cells: VCaP cells
T1 sequence (P10275 1-920): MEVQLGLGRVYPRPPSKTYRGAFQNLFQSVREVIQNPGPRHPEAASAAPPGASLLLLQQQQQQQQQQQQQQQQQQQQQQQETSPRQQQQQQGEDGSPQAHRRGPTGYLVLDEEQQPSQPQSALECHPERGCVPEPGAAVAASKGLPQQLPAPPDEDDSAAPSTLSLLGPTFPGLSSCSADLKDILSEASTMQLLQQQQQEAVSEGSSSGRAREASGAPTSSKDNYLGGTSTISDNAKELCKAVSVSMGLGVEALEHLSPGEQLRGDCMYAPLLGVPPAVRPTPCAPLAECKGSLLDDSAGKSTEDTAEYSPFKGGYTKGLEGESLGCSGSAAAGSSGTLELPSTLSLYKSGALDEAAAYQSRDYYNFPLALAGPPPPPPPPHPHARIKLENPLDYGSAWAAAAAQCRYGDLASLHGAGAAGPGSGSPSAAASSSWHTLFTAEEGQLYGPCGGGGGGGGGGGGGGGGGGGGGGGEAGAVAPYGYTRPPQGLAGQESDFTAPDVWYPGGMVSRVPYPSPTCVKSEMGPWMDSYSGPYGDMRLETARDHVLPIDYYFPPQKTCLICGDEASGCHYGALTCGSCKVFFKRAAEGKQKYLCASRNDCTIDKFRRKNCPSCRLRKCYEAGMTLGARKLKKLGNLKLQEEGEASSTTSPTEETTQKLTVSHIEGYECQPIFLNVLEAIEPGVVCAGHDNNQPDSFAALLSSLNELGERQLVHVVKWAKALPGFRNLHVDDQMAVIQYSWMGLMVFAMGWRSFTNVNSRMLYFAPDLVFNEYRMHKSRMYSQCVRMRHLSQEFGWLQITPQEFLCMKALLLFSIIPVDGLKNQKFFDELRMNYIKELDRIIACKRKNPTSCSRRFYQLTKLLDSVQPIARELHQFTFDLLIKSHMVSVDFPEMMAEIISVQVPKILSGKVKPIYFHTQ
Outline: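 VCaP cells in phenol red-free RPMI with 5% charcoal-stripped FBS were grown at least 3 days, then given compound as 7 half-log doses in 0.1% DMSO with 0.1 nM R1881 for 24 h. Lysates went into a sandwich AR ELISA with TMB read at 450 nm.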

[2] = biological target: T2, Androgen Receptor (Homo sapiens, UniProt P10275+P40337, T878A); test: Androgen Receptor ELISA assay (PathScan AR ELISA) in LNCaP cells: AR degradation, Dmax and DC50; assay type: cell-based; conditions: for DC50: concentration that caused 50% Androgen Receptor degradation
T2 construct: Compounds have been evaluated in this assay in LNCaP and/or VCaP cells utilizing similar protocols; endogenous in cells; host or cells: LNCaP cells

[3] = read-out: VCaP DC50; VCaP cells; concentration that caused 50% Androgen Receptor degradation
[4] = highest percentage of Androgen Receptor degradation
[5] = read-out: VCaP DC50; concentration that caused 50% Androgen Receptor degradation, VCaP cells
[6] = highest percentage of Androgen Receptor degradation observed

T2 sequence (P10275 whole entry T878A): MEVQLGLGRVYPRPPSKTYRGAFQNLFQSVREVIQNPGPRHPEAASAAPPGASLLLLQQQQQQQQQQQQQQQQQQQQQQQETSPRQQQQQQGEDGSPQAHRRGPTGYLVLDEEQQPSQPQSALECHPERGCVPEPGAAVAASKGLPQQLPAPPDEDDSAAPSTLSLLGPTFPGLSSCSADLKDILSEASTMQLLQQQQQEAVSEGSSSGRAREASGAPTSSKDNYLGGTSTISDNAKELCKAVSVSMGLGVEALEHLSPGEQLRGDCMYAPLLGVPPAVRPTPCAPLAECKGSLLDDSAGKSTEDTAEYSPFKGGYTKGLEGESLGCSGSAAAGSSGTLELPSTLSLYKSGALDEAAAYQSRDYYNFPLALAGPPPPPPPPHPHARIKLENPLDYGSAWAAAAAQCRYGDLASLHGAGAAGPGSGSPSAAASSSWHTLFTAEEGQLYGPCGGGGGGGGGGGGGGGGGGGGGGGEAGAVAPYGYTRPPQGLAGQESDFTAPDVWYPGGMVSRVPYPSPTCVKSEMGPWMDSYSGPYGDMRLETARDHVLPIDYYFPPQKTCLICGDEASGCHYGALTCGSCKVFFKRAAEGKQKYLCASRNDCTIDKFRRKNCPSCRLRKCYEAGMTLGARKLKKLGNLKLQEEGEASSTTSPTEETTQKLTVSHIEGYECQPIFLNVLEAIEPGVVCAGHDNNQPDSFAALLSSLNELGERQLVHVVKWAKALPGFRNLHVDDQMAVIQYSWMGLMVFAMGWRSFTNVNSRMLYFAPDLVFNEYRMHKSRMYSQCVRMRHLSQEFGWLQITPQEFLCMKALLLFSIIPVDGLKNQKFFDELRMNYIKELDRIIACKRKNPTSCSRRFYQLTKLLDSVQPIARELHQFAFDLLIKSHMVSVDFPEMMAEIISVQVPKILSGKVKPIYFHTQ
T2 sequence (P40337 whole entry): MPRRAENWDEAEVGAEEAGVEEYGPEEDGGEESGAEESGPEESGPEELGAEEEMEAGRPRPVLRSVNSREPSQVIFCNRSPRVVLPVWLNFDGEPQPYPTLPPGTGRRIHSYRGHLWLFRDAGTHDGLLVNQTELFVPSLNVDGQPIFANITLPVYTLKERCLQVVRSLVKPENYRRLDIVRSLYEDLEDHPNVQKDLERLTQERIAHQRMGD
T2 sequence (Q15369 whole entry partner): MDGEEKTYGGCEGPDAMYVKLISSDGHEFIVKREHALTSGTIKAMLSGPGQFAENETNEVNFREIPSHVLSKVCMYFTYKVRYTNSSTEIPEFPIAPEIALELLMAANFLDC
T2 sequence (Q15370 whole entry partner): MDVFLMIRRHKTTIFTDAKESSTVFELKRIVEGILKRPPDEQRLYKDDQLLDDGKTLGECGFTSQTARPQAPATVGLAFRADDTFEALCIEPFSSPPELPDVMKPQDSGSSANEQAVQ

Row | Structure (SMILES) | Dmax ([1]; VCaP, read-out: VCaP Dmax (%)) [%] | DC50 [1, 3] [nM] | DC50 [2] [nM] | Dmax [2, 4] [%] | DC50 [1, 5] [nM] | Dmax [2, 6] [%]
1 | Cc1ncsc1-c1ccc(CNC(=O)[C@@H]2C[C@@H](O)CN2C(=O)[C@@H](NC(=O)COCCCCCOCCCOc2ccc(N3C(=S)N(c4ccc(C#N)c(C(F)(F)F)c4)C(=O)C3(C)C)cc2)C(C)(C)C)cc1 [Example 295] | 26 to 50 | < 50 | < 50 | > 71 | – | –
2 | Cc1ncsc1-c1ccc(CNC(=O)[C@@H]2C[C@@H](O)CN2C(=O)[C@@H](NC(=O)COCCCOCCCOc2ccc(CN3C(=S)N(c4ccc(C#N)c(C(F)(F)F)c4)C(=O)C3(C)C)cc2)C(C)(C)C)cc1 [Example 307] | 51 to 70 | < 50 | 51 to 500 | 51 to 70 | – | –
3 | Cc1ncsc1-c1ccc(CNC(=O)[C@@H]2C[C@H](O)CN2C(=O)[C@@H](NC(=O)COCCCOCCCCCOc2ccc(N3C(=S)N(c4ccc(C#N)c(C(F)(F)F)c4)C(=O)C3(C)C)cc2)C(C)(C)C)cc1 [Example 242] | 26 to 50 | > 501 | > 501 | 26 to 50 | – | –
4 | Cc1ncsc1-c1ccc(CNC(=O)[C@@H]2C[C@@H](O)CN2C(=O)[C@@H](NC(=O)COCCCOc2ccc(-c3ccc(N4C(=S)N(c5ccc(C#N)c(C(F)(F)F)c5)C(=O)C4(C)C)cc3)cc2)C(C)(C)C)cc1 [Example 77] | 51 to 70 | – | < 50 | – | < 50 | > 71
5 | Cc1ncsc1-c1ccc(CNC(=O)[C@@H]2C[C@@H](O)CN2C(=O)[C@@H](NC(=O)COCCOc2cccc(CCCOc3ccc(N4C(=S)N(c5ccc(C#N)c(C(F)(F)F)c5)C(=O)C4(C)C)cc3)c2)C(C)(C)C)cc1 [Example 296] | 26 to 50 | < 50 | 51 to 500 | > 71 | – | –
6 | Cc1ncsc1-c1ccc(CNC(=O)[C@@H]2C[C@@H](O)CN2C(=O)[C@H](C(C)C)N2Cc3c(CCCOCCOc4ccc(N5C(=S)N(c6ccc(C#N)c(C(F)(F)F)c6)C(=O)C5(C)C)cc4)cccc3C2=O)cc1 [Example 299] | 26 to 50 | – | 51 to 500 | > 71 | – | –
7 | Cc1ncsc1-c1ccc(CNC(=O)[C@@H]2C[C@@H](O)CN2C(=O)[C@@H](NC(=O)COCCCCCN(C)C(=O)CCCc2ccc(N3C(=S)N(c4ccc(C#N)c(C(F)(F)F)c4)C(=O)C3(C)C)cc2)C(C)(C)C)cc1 [Example 65, (2S,4R)-1-[(2S)-2-[2-({5-[4-(4-{3-[4-cyano-3-(trifluoromethyl)phenyl]-5,5-dimethyl-4-oxo-2-sulfanylideneimidazolidin-1-yl}phenyl)-N-methylbutanamido]pentyl}oxy)acetamido]-3,3-dimethylbutanoyl]-4-hydroxy-N-{[4-(4-methyl-1,3-thiazol-5-yl)phenyl]methyl}pyrrolidine-2-carboxamide] | 51 to 70 | – | 51 to 500 | – | < 50 | 51 to 70
8 | Cc1ncsc1-c1ccc([C@H](C)NC(=O)[C@@H]2C[C@@H](O)CN2C(=O)[C@@H](NC(=O)COCCCOCCCCCOc2c(F)cc(N3C(=S)N(c4ccc(C#N)c(C(F)(F)F)c4)C(=O)C3(C)C)cc2F)C(C)(C)C)cc1 [Example 11, (2S,4R)-1-[(2S)-2-[2-(3-{[5-(4-{3-[4-cyano-3-(trifluoromethyl)phenyl]-5,5-dimethyl-4-oxo-2-sulfanylideneimidazolidin-1-yl}-2,6-difluorophenoxy)pentyl]oxy}propoxy)acetamido]-3,3-dimethylbutanoyl]-4-hydroxy-N-[(1S)-1-[4-(4-methyl-1,3-thiazol-5-yl)phenyl]ethyl]pyrrolidine-2-carboxamide] | 51 to 70 | – | < 50 | – | < 50 | > 71
9 | Cc1ncsc1-c1ccc(CNC(=O)[C@@H]2C[C@@H](O)CN2C(=O)[C@@H](NC(=O)COCCCOCCCCCOc2ccc(N3C(=S)N(c4ccc(C#N)c(Cl)c4)C(=O)C3(C)C)cc2)C(C)(C)C)cc1 [Example 8] | 51 to 70 | – | < 50 | – | < 50 | > 71
10 | Cc1ncsc1-c1ccc(CNC(=O)[C@@H]2C[C@@H](O)CN2C(=O)[C@@H](NC(=O)CCCOCCOCCCOc2ccc(N3C(=S)N(c4ccc(C#N)c(C(F)(F)F)c4)C(=O)C3(C)C)cc2)C(C)(C)C)cc1 [Example 300] | 51 to 70 | < 50 | < 50 | 51 to 70 | – | –
11 | Cc1ncsc1-c1ccc(CNC(=O)[C@@H]2C[C@@H](O)CN2C(=O)[C@@H](NC(=O)COCCCOCCCCOc2ccc(N3C(=S)N(c4ccc(C#N)c(Cl)c4)C(=O)C3(C)C)cc2)C(C)(C)C)cc1 [Example 31, (2S,4R)-1-[(2S)-2-{2-[3-(4-{4-[3-(3-chloro-4-cyanophenyl)-5,5-dimethyl-4-oxo-2-sulfanylideneimidazolidin-1-yl]phenoxy}butoxy)propoxy]acetamido}-3,3-dimethylbutanoyl]-4-hydroxy-N-{[4-(4-methyl-1,3-thiazol-5-yl)phenyl]methyl}pyrrolidine-2-carboxamide] | > 71 | – | < 50 | – | < 50 | > 71
12 | Cc1ncsc1-c1ccc(CNC(=O)[C@@H]2C[C@@H](O)CN2C(=O)[C@@H](NC(=O)COCCCOCCCOc2ccc(N3C(=S)N(c4ccc(C#N)c(C(F)(F)F)c4)C(=O)C3(C)C)cc2)C(C)(C)C)cc1 [Example 238] | < 25 | – | 51 to 500 | 51 to 70 | – | –
13 | Cc1ncsc1-c1ccc(CNC(=O)[C@@H]2C[C@@H](O)CN2C(=O)[C@@H](NC(=O)CO[C@H](C)[C@@H](C)OCCOCCOc2ccc(N3C(=S)N(c4ccc(C#N)c(C(F)(F)F)c4)C(=O)C3(C)C)cc2)C(C)(C)C)cc1 [Example 22, (2S,4R)-1-[(2S)-2-(2-{[(2R,3R)-3-{2-[2-(4-{3-[4-cyano-3-(trifluoromethyl)phenyl]-5,5-dimethyl-4-oxo-2-sulfanylideneimidazolidin-1-yl}phenoxy)ethoxy]ethoxy}butan-2-yl]oxy}acetamido)-3,3-dimethylbutanoyl]-4-hydroxy-N-{[4-(4-methyl-1,3-thiazol-5-yl)phenyl]methyl}pyrrolidine-2-carboxamide] | 26 to 50 | – | < 50 | – | 51 to 500 | 51 to 70
14 | Cc1ncsc1-c1ccc([C@H](C)NC(=O)[C@@H]2C[C@@H](O)CN2C(=O)[C@@H](NC(=O)COCCCOCCCCCOc2ccc(N3C(=S)N(c4ccc(C#N)c(C(F)(F)F)c4)C(=O)C3(C)C)cc2)C(C)(C)C)cc1 [Example 4, (2S,4R)-1-[(2S)-2-[2-(3-{[5-(4-{3-[4-cyano-3-(trifluoromethyl)phenyl]-5,5-dimethyl-4-oxo-2-sulfanylideneimidazolidin-1-yl}phenoxy)pentyl]oxy}propoxy)acetamido]-3,3-dimethylbutanoyl]-4-hydroxy-N-[(1S)-1-[4-(4-methyl-1,3-thiazol-5-yl)phenyl]ethyl]pyrrolidine-2-carboxamide] | 51 to 70 | – | < 50 | – | < 50 | > 71
15 | Cc1ncsc1-c1ccc(CNC(=O)[C@@H]2C[C@@H](O)CN2C(=O)[C@@H](NC(=O)CCCOCCOc2ccc(-c3ccc(N4C(=S)N(c5ccc(C#N)c(C(F)(F)F)c5)C(=O)C4(C)C)cc3)cc2)C(C)(C)C)cc1 [Example 260] | 26 to 50 | < 50 | 51 to 500 | > 71 | – | –
16 | Cc1ncsc1-c1ccc(CNC(=O)[C@@H]2C[C@@H](O)CN2C(=O)[C@@H](NC(=O)COCCOCCOc2ccc(-c3ccc(N4C(=S)N(c5ccc(C#N)c(C(F)(F)F)c5)C(=O)C4(C)C)cc3)cc2)C(C)(C)C)cc1 [Example 67, (2S,4R)-1-((S)-2-(2-(2-(2-(4′-(3-(4-cyano-3-(trifluoromethyl)phenyl)-5,5-dimethyl-4-oxo-2-thioxoimidazolidin-1-yl)biphenyl-4-yloxy)ethoxy)ethoxy)acetamido)-3,3-dimethylbutanoyl)-4-hydroxy-N-(4-(4-methylthiazol-5-yl)benzyl)pyrrolidine-2-carboxamide] | 26 to 50 | – | < 50 | – | < 50 | > 71
